Results on 10 molecules are retold here after ChEMBL document CHEMBL5104178, “Nitroimidazopyrazinones with Oral Activity against Tuberculosis and Chagas Disease in Mouse Models of Infection” (J Med Chem, 2022).

Data set [1] in a line: Plasma protein binding in mouse. It counts as ADME, cell-free. To be noted: read-out: PPB (converted).
Data set [2] can be described thus: Solubility of compound in water by LC-UV analysis. It counts as physicochemical. To be noted: water; read-out: solubility.
Data set [3] deals with Mycobacterium tuberculosis. Put plainly: Substrate activity at Mycobacterium tuberculosis Ddn expressed in Escherichia coli BL21 (DE3) assessed as oxidation of F420H2 by measuring Kcat/Km by spectrophotometric analysis.
A short description of data set [4]: Metabolic stability in mouse microsomes assessed as compound remaining measured after 2 hrs. It counts as ADME, Microsome. To be noted: read-out: Stability.
Data set [5] can be described thus: Tmax in CD-1 mouse at 20 mg/kg, po administered as DMSO/PEG400 formulation measured upto 24 hrs by LC-MS/MS analysis. It counts as ADME, organism-based. To be noted: in vivo.
Data set [6] in a line: Cmax in CD-1 mouse at 20 mg/kg, po administered as DMSO/PEG400 formulation measured upto 24 hrs by LC-MS/MS analysis. The arrangement: dose 20 mg/kg, time < 24 hrs, route po. Conditions: in vivo. It counts as ADME, organism-based.
Data set [7] in a line: Plasma protein binding in human. To be noted: read-out: PPB (converted). It counts as ADME, cell-free.
A short description of data set [8]: Oral bioavailability in CD-1 mouse at 20 mg/kg administered as DMSO/PEG400 formulation measured upto 24 hrs by LC-MS/MS analysis. It counts as ADME, organism-based. To be noted: in vivo.
Data set [9] is described as follows: Metabolic stability in human microsomes assessed as compound remaining measured after 2 hrs. It counts as ADME, Microsome. To be noted: read-out: Stability.
In data set [10] the test system is Mycobacterium tuberculosis. Kind of data set: Substrate activity at Mycobacterium tuberculosis Ddn expressed in Escherichia coli BL21 (DE3) assessed as oxidation of F420H2 by measuring Kcat by spectrophotometric analysis.
For data set [11], the system named is Mycolicibacterium smegmatis. Put plainly: Antimycobacterial activity against Mycobacterium smegmatis mc2155 ATCC 700084 assessed as bacterial growth inhibition incubated for 24 hrs under normoxic condition by resazurin microtiter assay. It counts as functional. (The colour change of resazurin is a common sign of viable cells or microbes.)
Data set [12] in a line: AUC(0 to 8 hrs) in CD-1 mouse at 20 mg/kg, po administered as DMSO/PEG400 formulation measured upto 24 hrs by LC-MS/MS analysis. It counts as ADME, organism-based. To be noted: in vivo. Also noted: dose 20 mg/kg, time < 24 hrs, route po.
Data set [13] in a line: Clearance in CD-1 mouse at 5 mg/kg, iv administered as DMSO/PEG400 formulation measured upto 24 hrs by LC-MS/MS analysis. It counts as ADME, organism-based. To be noted: in vivo.
Data set [14] can be described thus: Volume of distribution at steady state in CD-1 mouse at 5 mg/kg, iv administered as DMSO/PEG400 formulation measured upto 24 hrs by LC-MS/MS analysis. It counts as ADME, organism-based. Conditions: in vivo, read-out: Vdss.
The nature of data set [15]: Half life in CD-1 mouse at 5 mg/kg, iv administered as DMSO/PEG400 formulation measured upto 24 hrs by LC-MS/MS analysis. It counts as ADME, organism-based. Conditions: in vivo.
Data set [16] can be described thus: Stability in human plasma assessed as compound remaining measured after 2 hrs. It counts as ADME, cell-free. Conditions: read-out: Stability.
The subject of data set [17] is Mycobacterium tuberculosis. Kind of data set: Substrate activity at Mycobacterium tuberculosis Ddn expressed in Escherichia coli BL21 (DE3) assessed as oxidation of F420H2 by measuring Km by spectrophotometric analysis.
For data set [18], the system named is Mycobacterium avium. Put plainly: Antimycobacterial activity against Mycobacterium avium ATCC 25291 assessed as bacterial growth inhibition incubated for 6 days under normoxic condition by resazurin microtiter assay. It counts as functional. To be noted: ATCC 25291, 144 h, time 6 day.
Data set [19] relates to Mycobacterium tuberculosis. Put plainly: Antimycobacterial activity against Mycobacterium tuberculosis H37Rv ATCC 27294 assessed as bacterial growth inhibition at 4 to 32 ug/ml incubated for 5 days under hypoxic condition by resazurin microtiter assay relative to control. It counts as functional. Conditions: dose 4-32 µg/ml; time 5 day.
The subject of data set [20] is Trypanosoma cruzi. Put plainly: Antitrypanosomal activity against Trypanosoma cruzi Tulahuen amastigotes infected in mouse 3T3 cells assessed as reduction in parasite growth at Emax concentration incubated for 48 hrs by […] staining based analysis. It counts as functional. The arrangement: scale not given: the % may be the effect or the level left.
A short description of data set [21]: Cytotoxicity against mouse 3T3 cells. It counts as toxicity, cell-based. To be noted: NIH3T3 cells.
The subject of data set [22] is Trypanosoma cruzi. Put plainly: Antitrypanosomal activity against Trypanosoma cruzi Tulahuen amastigotes infected in mouse 3T3 cells assessed as inhibition of parasite growth incubated for 48 hrs by […] staining based analysis. It counts as functional, organism-based.
Data set [23] in a line: Selectivity index, ratio of CC50 for cytotoxicity against mouse 3T3 cells to IC50 for antitrypanosomal activity against Trypanosoma cruzi Tulahuen amastigotes infected in mouse 3T3 cells. It counts as toxicity, cell-based. Conditions: read-out: Ratio CC50/IC50.
The subject of data set [24] is Mycobacterium tuberculosis. Kind of data set: Antimycobacterial activity against Mycobacterium tuberculosis H37Rv ATCC 27294 assessed as bacterial growth inhibition at 0.125 to 8 ug/ml incubated for 5 days under hypoxic condition by resazurin microtiter assay relative to control. It counts as functional. Conditions: dose 0.125-8 µg/ml; time 5 day; at 0.125 to 8 µg/mL.

In data set [25] the test system is Mycobacterium tuberculosis. Put plainly: Antimycobacterial activity against Mycobacterium tuberculosis H37Ra ATCC 25177 assessed as bacterial growth inhibition incubated for 6 days under normoxic condition by resazurin microtiter assay. It counts as functional. Conditions: H37Ra ATCC 25177, 144 h, time 6 day.
The test system of data set [26] is Mycobacterium tuberculosis. Kind of data set: Antimycobacterial activity against Mycobacterium tuberculosis H37Rv ATCC 27294 assessed as bacterial growth inhibition incubated for 5 days under normoxic condition by resazurin microtiter assay. It counts as functional. Conditions: H37Rv ATCC 27294, 120 h, time 5 day.
Data set [27] has as its system Mycobacterium tuberculosis. Kind of data set: Antimycobacterial activity against Mycobacterium tuberculosis H37Rv ATCC 27294 assessed as bacterial growth inhibition incubated for 5 days under hypoxic condition by resazurin microtiter assay. To be noted: H37Rv ATCC 27294, 120 h, time 5 day. It counts as functional.
Data set [28] can be described thus: Solubility of compound in PBS at 7.4 by LC-UV analysis. It counts as physicochemical. Conditions: pH 7.4.

Molecules are shown by their SMILES. In brackets after ≈: the same amount, converted by molar mass.

Regarding `O=c1c2nc([N+](=O)[O-])cn2ccn1Cc1cccc(OC(F)(F)F)c1`, the fraction unbound in [1] and in [7] was less than 0.01 in each case. The solubility – broadly, the concentration that dissolves in the medium under given conditions – in [2] amounted to 5.4 µM (≈ 1.91 µg/mL). Further, in [3], the kcat/Km (usually the second-order rate constant that governs catalysis at low substrate concentration) was found to be 70 M⁻¹ s⁻¹. Besides, the figures for the remaining at 2 h in data set [4], in data set [9] and in data set [16] were 97%, more than 99% and 99%, respectively. In addition, the Tmax (as a rule, the time from dosing to the highest level) in data set [5] was 3 h. In addition, in data set [6], the Cmax (usually the highest concentration seen after dosing) is 2900 ng/mL. The bioavailability (usually the share of a dose that reaches the circulation, judged against a reference dose that is usually intravenous) in data set [8] was determined as 73%. The kcat (as a rule, the maximal rate divided by the concentration of active sites) in data set [10] was 3.1 10^-3/s. Moreover, the MIC in data set [11] and in [18] was more than 32 µg/mL in each case. Moreover, the AUC(0-t) – broadly, the area under the concentration-time curve up to a stated or last time point – at 24 h in [12] was determined as 15600 ng·h/mL. For the same molecule, the clearance (commonly the volume of plasma or blood freed of the substance per unit of time) in data set [13] was determined as 10.1 mL/min/kg. Further, the Vd in data set [14] is 1.1 L/kg. The half-life (commonly how long it takes for the measured level to halve) in data set [15] is 1.1 h. Also, the Km (usually the substrate concentration at which the rate is half of its maximum) in data set [17] is 45 µM.
For the molecule `O=c1c2nc([N+](=O)[O-])cn2ccn1Cc1cncc(-c2ccc(OC(F)(F)F)cc2)c1`, the kcat/Km in data set [3] is 4470 M⁻¹ s⁻¹. In addition, the kcat in data set [10] was 1.2 10^-2/s. Also, the “inhibition (INH)” value in [19] came to 82%. For the same molecule, the Km in data set [17] was 2.6 µM.
Consider `CC[C@@H]([C@H](C)O)n1ncn(-c2ccc(N3CCN(c4ccc(OC[C@@H]5CO[C@@](Cn6cncn6)(c6ccc(F)cc6F)C5)cc4)CC3)cc2)c1=O` [POSACONAZOLE], for which the Activity in data set [20] stood at 87%. For the same molecule, in data set [21], the CC50 – broadly, the concentration giving 50% cytotoxicity – was more than 1000 nM. The concentration for half-maximal inhibition (IC50) (in general, the concentration at which inhibition is half-maximal) in data set [22] (NIH3T3, 48 h) came out at 2 nM. In data set [22] (NIH3T3, time 48 hrs), the IC90 (usually the concentration needed for an effect of 90%) was found to be 4 nM. Also, in [23], the selectivity ratio is more than 569.
Consider `Cc1c(C)n2cc([N+](=O)[O-])nc2c(=O)n1Cc1ccc(OC(F)(F)F)cc1`, for which, in [3], the kcat/Km turned out to be 244 M⁻¹ s⁻¹. Further, the kcat in data set [10] is 6.9 10^-3/s. The MIC in data set [11] and in data set [18] was more than 32 µg/mL each time. The Michaelis constant (Km) in data set [17] was found to be 28 µM.
On to `O=c1c2nc([N+](=O)[O-])cn2ccn1Cc1ccc(N2CCCCC2)cc1`, for which, in data set [3], the kcat/Km was found to be 773 M⁻¹ s⁻¹. In addition, in data set [10], the kcat is 1.7 10^-3/s. Further, in [17], the Km is 2.2 µM.
On to `Cc1cccc(Cn2ccn3cc([N+](=O)[O-])nc3c2=O)c1`, for which the MIC – broadly, the least concentration at which growth counts as inhibited – was more than 32 µg/mL in [11], not above 0.016 µg/mL in data set [25], 0.063 µg/mL (≈ 0.222 µM) in data set [26] and more than 32 µg/mL in [18]. Also, the “inhibition (INH)” value in data set [24] is reported as 70%.
On to `Cc1nc(OCc2ccc(OC(F)(F)F)cc2)c2nc([N+](=O)[O-])cn2c1C`, for which the MIC in [27], in data set [11], in data set [25], in data set [26] and in data set [18] was more than 32 µg/mL each time. Also, the kcat/Km in [3] amounted to 24 M⁻¹ s⁻¹. Besides, the turnover number (kcat) in [10] was 7 10^-4/s. For the same molecule, in data set [17], the Km was 30 µM.
For the molecule `O=c1c2nc([N+](=O)[O-])cn2ccn1Cc1cncc(-c2cccc(OC(F)(F)F)c2)c1`, the kcat/Km in [3] came to 3190 M⁻¹ s⁻¹. The kcat in data set [10] is 1.4 10^-2/s. For the same molecule, the Km in [17] amounted to 4.3 µM.
Regarding `O=C1CCn2cc([N+](=O)[O-])nc2N1Cc1ccccc1`, the figures for the solubility in [28] and in [2] were 142 µM (≈ 38.7 µg/mL) and 137 µM (≈ 37.3 µg/mL), respectively. In addition, the minimum inhibitory concentration (MIC) in [27] and in [26] was more than 32 µg/mL each time.
Consider `O=c1c2nc([N+](=O)[O-])cn2ccn1Cc1ccc(-c2cccc(OC(F)(F)F)c2)cc1`, for which the kcat/Km in [3] was 370 M⁻¹ s⁻¹. Besides, the kcat in [10] was 3.1 10^-3/s. The Km in [17] was 8.4 µM.
